Values after ≈ are worked out from the molar mass of the structure shown.
What was measured:
[1] = Drug metabolism in DMSO assessed as oxidation by measuring rac-3-Hydroxy-2-oxo-1-phenylpyrrolidine-3-carboxylic Acid (2-Thiophen-2-ylethyl)amide formation incubated at high temperature under stirring condition for 2 days
[2] = Drug metabolism in DMSO assessed as oxidation by measuring rac-3-Hydroxy-2-oxo-1-phenylpyrrolidine-3-carboxylic Acid (2-Thiophen-2-ylethyl)amide formation measured after 2 years
[3] = Dissociation constant, pKa of compound; assay type: physicochemical
[4] = Lipophilicity, log D of the compound at pH 7.4; assay type: physicochemical; conditions: buffer
[5] = Solubility of the compound in FaSSIF; assay type: physicochemical
[6] = Solubility of the compound in FeSSIF; assay type: physicochemical
[7] = Passive permeability across apical to basal side in human Caco2 cells; assay type: ADME, cell-based; conditions: Caco-2, read-out: permeability
[8] = Stability in mouse liver microsomes assessed per mg protein; assay type: ADME, Microsome
[9] = Stability in human liver microsomes assessed per mg protein; assay type: ADME, Microsome
[10] = Clearance in mouse at 0.2 mg/kg, iv; assay type: ADME, organism-based; conditions: in vivo
[11] = Volume of distribution at steady state in mouse at 0.2 mg/kg, iv; assay type: ADME, organism-based; conditions: in vivo, read-out: Vdss
[12] = Half life in mouse at 0.2 mg/kg, iv; assay type: ADME, organism-based; conditions: in vivo
[13] = Oral bioavailability in mouse at 0.5 mg/kg; assay type: ADME, organism-based; conditions: in vivo
[14] = Oral bioavailability in mouse at 50 mg/kg; assay type: ADME, organism-based; conditions: in vivo
[15] = tested on: U-87 MG; test: Antitumor activity against human U87MG cells xenografted in po dosed CD-1 nude mouse assessed as tumor growth inhibition administered once daily for 12 days; assay type: functional, organism-based; conditions: U-87MG ATCC
[16] = Toxicity in CD-1 nude mouse xenografted with human U87MG cells assessed as body weight loss at 5 to 20 mg/kg, po administered once daily for 12 days measured during compound dosing; assay type: organism-based; conditions: in vivo, 288 h
[17] = Toxicity in CD-1 nude mouse xenografted with human U87MG cells at 5 to 20 mg/kg, po administered once daily for 12 days measured during compound dosing; assay type: organism-based; conditions: in vivo, 288 h

Row | pKa [3] | logD [4] | solubility [5] [µg/mL] | solubility [6] [µg/mL] | Papp A→B [7] [×10⁻⁶ cm/s] | Stability [8] [µL/min] | Stability [9] [µL/min] | clearance [10] [mL/min/kg] | Vd [11] [L/kg] | half-life [12] [h] | bioavailability [13] [%] | bioavailability [14] [%] | SMILES | Drug metabolism [1] | Drug metabolism [2] | TGI [15] | Activity [16] | Activity [17]
1 | – | – | – | – | – | – | – | – | – | – | – | – | O=C(NCCc1cccs1)C1CCN(c2ccccc2)C1=O (configuration not stated) | Metabolite not detected | Metabolite detected | – | – | –
2 | 11 | 2 | 158 (≈ 366 µM) | 334 (≈ 773 µM) | 16 | < 10 | < 10 | 3 | 0.78 | 3 | 35 | 100 | O=C1CCc2cc(N3CC[C@](O)(C(=O)NCc4cc(F)cc(Cl)c4)C3=O)ccc2N1 | – | – | Dose-dependent effect | Non-Toxic | Non-Toxic

— ChEMBL document CHEMBL4396866, “Discovery and Structure-Based Optimization of Next-Generation Reversible Methionine Aminopeptidase-2 (MetAP-2) Inhibitors” (J Med Chem, 2019)
